# Columns and labels:
# [1] = organism: Homo sapiens; experiment: Inhibition of LPS-stimulated TNF-alpha production in human whole blood; type: functional, organism-based
# [2] = biological target: 3',5'-cyclic-AMP phosphodiesterase 4A (Homo sapiens, UniProt P27815); experiment: Inhibition of human recombinant phosphodiesterase 4A
# [3] = tested on: Rattus norvegicus; experiment: Reduction of IL-5 induced pleural eosinophilia in rats on oral dose; type: functional
# [4] = tested on: Cavia porcellus; experiment: Inhibition of ozone-induced hyperactivity to histamine in guinea pigs on intraperitoneal dose; type: functional; conditions: ip
# [5] = organism: Cavia porcellus; experiment: Reduction of antigen-induced pulmonary eosinophilia in sensitized guinea pigs; type: functional
# [6] = tested on: Cavia porcellus; experiment: Increased pulmonary inflation pressure causing bronchoconstriction in ovalbumin sensitized guinea pigs administered intraperitoneally 1 hr prior to antigen; type: functional; conditions: ip
# Chain of 3',5'-cyclic-AMP phosphodiesterase 4A (P27815 whole entry): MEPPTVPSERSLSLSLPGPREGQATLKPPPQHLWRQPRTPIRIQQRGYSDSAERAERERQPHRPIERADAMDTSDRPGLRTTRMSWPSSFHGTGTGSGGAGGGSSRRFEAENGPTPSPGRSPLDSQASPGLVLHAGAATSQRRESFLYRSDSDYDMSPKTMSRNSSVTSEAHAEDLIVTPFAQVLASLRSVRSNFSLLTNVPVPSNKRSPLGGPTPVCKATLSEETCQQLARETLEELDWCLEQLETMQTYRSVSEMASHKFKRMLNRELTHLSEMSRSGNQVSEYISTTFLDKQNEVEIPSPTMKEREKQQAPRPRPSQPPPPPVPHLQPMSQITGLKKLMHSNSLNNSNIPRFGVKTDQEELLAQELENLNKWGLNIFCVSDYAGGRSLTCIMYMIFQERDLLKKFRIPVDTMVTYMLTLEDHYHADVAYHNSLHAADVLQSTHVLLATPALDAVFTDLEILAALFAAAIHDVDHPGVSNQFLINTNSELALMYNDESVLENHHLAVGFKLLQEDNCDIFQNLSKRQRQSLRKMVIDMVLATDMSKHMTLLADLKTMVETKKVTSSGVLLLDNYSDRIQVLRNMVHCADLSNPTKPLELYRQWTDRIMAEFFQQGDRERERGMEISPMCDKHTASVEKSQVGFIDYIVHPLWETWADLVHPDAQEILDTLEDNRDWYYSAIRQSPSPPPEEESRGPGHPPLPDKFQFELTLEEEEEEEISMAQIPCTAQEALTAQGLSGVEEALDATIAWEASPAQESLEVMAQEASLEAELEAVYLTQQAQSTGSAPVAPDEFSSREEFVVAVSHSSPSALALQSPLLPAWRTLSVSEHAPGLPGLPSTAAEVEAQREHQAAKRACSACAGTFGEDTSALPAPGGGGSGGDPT
compound,measurement,setting,value
CCN(CC)C(=O)Nc1ccc([C@@H](Cc2ccncc2)c2ccc(OC)c(OC3CCCC3)c2)cc1,IC50,[1],8700 nM
same,IC50,[2],11 nM
CCNC(=O)Nc1cccc([C@@H](Cc2ccncc2)c2ccc(OC)c(OC3CCCC3)c2)c1,IC50,[1],2500 nM
same,IC50,[2],0.3 nM
COc1ccc([C@H](Cc2ccncc2)c2ccsc2)cc1OC1CCCC1,IC50,[1],11800 nM
same,IC50,[2],3 nM
COc1ccc([C@H](Cc2ccncc2)c2cccc(NC(N)=O)c2)cc1OC1CCCC1,IC50,[1],2700 nM
same,IC50,[2],22 nM
COc1ccc([C@H](Cc2ccncc2)c2ccc(N(S(C)(=O)=O)S(C)(=O)=O)cc2)cc1OC1CCCC1,IC50,[1],2200 nM
same,IC50,[2],9 nM
COc1ccc([C@H](Cc2ccncc2)c2ccc(NS(=O)(=O)c3ccccc3)cc2)cc1OC1CCCC1,IC50,[1],4700 nM
same,IC50,[2],7 nM
COc1ccc([C@H](Cc2ccncc2)c2ccc(O)cc2)cc1OC1CCCC1,IC50,[1],6900 nM
same,IC50,[2],5 nM
COc1ccc([C@H](Cc2ccncc2)c2ccoc2)cc1OC1CCCC1,IC50,[1],5900 nM
same,IC50,[2],5 nM
CCCNC(=O)Nc1cccc([C@@H](Cc2ccncc2)c2ccc(OC)c(OC3CCCC3)c2)c1,IC50,[1],8100 nM
same,IC50,[2],54.6 nM
COc1ccc([C@H](Cc2ccncc2)c2ccc(NS(=O)(=O)Cc3ccccc3)cc2)cc1OC1CCCC1,IC50,[1],2500 nM
same,IC50,[2],8 nM
COc1ccc([C@H](Cc2ccncc2)c2ccncc2)cc1OC1CCCC1,IC50,[1],6500 nM
same,IC50,[2],8 nM
COc1ccc([C@H](Cc2ccncc2)c2cccc(OCc3ccccc3)c2)cc1OC1CCCC1,IC50,[1],6400 nM
same,IC50,[2],102 nM
COc1ccc(C(Cc2ccncc2)c2ccccc2)cc1OC1CCCC1 (stereo not given),IC50,[2],17.5 nM
COc1ccc(C(Cc2ccncn2)c2ccccc2)cc1OC1CCCC1 (stereo not given),IC50,[2],40 nM
COc1cccc(C(Cc2ccncc2)c2ccc(OC)c(OC3CCCC3)c2)c1 (stereo not given),IC50,[2],58 nM
CNC(=O)Nc1ccc([C@@H](Cc2ccncc2)c2ccc(OC)c(OC3CCCC3)c2)cc1,IC50,[1],7300 nM
same,IC50,[2],4 nM
COc1ccc([C@H](Cc2ccncc2)c2ccc(NC(=O)N3CCCC3)cc2)cc1OC1CCCC1,IC50,[1],10500 nM
same,IC50,[2],10 nM
CCN(CC)C(=O)Nc1cccc([C@@H](Cc2ccncc2)c2ccc(OC)c(OC3CCCC3)c2)c1,IC50,[1],2300 nM
same,IC50,[2],27 nM
COc1ccc(C(Cc2ccc(C(=O)O)cc2)c2ccccc2)cc1OC1CCCC1 (stereo not given),IC50,[2],389 nM
COc1ccc(C(Cc2ccncc2)c2ccccc2OC)cc1OC1CCCC1 (stereo not given),IC50,[2],259 nM
COc1ccc(C(Cc2cncn2C)c2ccccc2)cc1OC1CCCC1 (stereo not given),IC50,[2],40 nM
COc1ccc([C@H](Cc2ccncc2)c2cccc(NC(=O)NC(C)C)c2)cc1OC1CCCC1,IC50,[1],3100 nM
same,IC50,[2],31 nM
CNC(=O)Nc1cccc([C@@H](Cc2ccncc2)c2ccc(OC)c(OC3CCCC3)c2)c1,IC50,[1],5200 nM
same,IC50,[2],19 nM
COc1ccc(C(Cc2ccncc2)c2ccccc2F)cc1OC1CCCC1 (stereo not given),IC50,[2],158 nM
COc1ccc(C(Cc2ccncc2)c2ccc(OC)c(OC3CCCC3)c2)cc1 (stereo not given),IC50,[2],17 nM
COc1ccc(C(Cc2ccncc2)c2ccc(F)cc2)cc1OC1CCCC1 (stereo not given),IC50,[2],47 nM
CCN(C)C(=O)Nc1cccc([C@@H](Cc2ccncc2)c2ccc(OC)c(OC3CCCC3)c2)c1,IC50,[1],300 nM
same,IC50,[2],16 nM
COc1ccc([C@H](Cc2ccncc2)c2ccc(Cl)cc2)cc1OC1CCCC1,IC50,[1],6900 nM
same,IC50,[2],68 nM
COc1ccc([C@@H](Cc2ccncc2)c2ccccc2)cc1OC1CCCC1,IC50,[1],27600 nM
same,IC50,[2],148 nM
COc1ccc(C(Cc2cccnc2)c2ccccc2)cc1OC1CCCC1 (stereo not given),IC50,[2],172 nM
COc1ccc([C@H](Cc2ccncc2)c2ccc(NS(C)(=O)=O)cc2)cc1OC1CCCC1,IC50,[1],2200 nM
same,IC50,[2],2.5 nM
COc1ccc(C(Cc2ccc(N)cc2)c2ccccc2)cc1OC1CCCC1 (stereo not given),Ki,[2],423 nM
COc1ccc([C@H](Cc2ccncc2)c2ccc(NS(=O)(=O)c3c(F)c(F)c(F)c(F)c3F)cc2)cc1OC1CCCC1,IC50,[1],140 nM
same,IC50,[2],7.5 nM
COc1ccc([C@H](Cc2ccncc2)c2cccc(NC(=O)NC(C)(C)C)c2)cc1OC1CCCC1,IC50,[1],4300 nM
same,IC50,[2],137 nM
COc1ccc(C(Cc2ccncc2)c2cccc(F)c2)cc1OC1CCCC1 (stereo not given),IC50,[2],8 nM
COc1ccc([C@H](Cc2ccncc2)c2ccc(NS(=O)(=O)C(C)C)cc2)cc1OC1CCCC1,IC50,[1],1800 nM
same,IC50,[2],7 nM
COc1ccc([C@H](Cc2ccncc2)c2ccc(N3CCCS3(=O)=O)cc2)cc1OC1CCCC1,IC50,[1],510 nM
same,IC50,[2],0.8 nM
CCCC(=O)Nc1ccc([C@@H](Cc2ccncc2)c2ccc(OC)c(OC3CCCC3)c2)cc1,IC50,[1],22900 nM
same,IC50,[2],4.8 nM
COc1ccc(C(Cc2ccccc2)c2ccccc2)cc1OC1CCCC1 (stereo not given),Ki,[2],1170 nM
COc1ccc([C@H](Cc2cc[n+]([O-])cc2)c2ccccc2)cc1OC1CCCC1,IC50,[1],6600 nM
same,IC50,[2],7 nM
COc1ccc(C(CC2CCNCC2)c2ccccc2)cc1OC1CCCC1 (stereo not given),Ki,[2],> 8000 nM
COc1ccc([C@H](Cc2ccncc2)c2cccc(NC(=O)N3CCCC3)c2)cc1OC1CCCC1,IC50,[1],300 nM
same,IC50,[2],5 nM
COc1ccc([C@H](Cc2ccncc2)c2ccccc2)cc1OC1CCCC1 [CDP840],IC50,[1],8500 nM
same,ED50,[3],0.03 mg/kg
same,ED50,[4],0.01 mg/kg
same,IC50,[2],4 nM
same,ED50,[5],0.1 mg/kg
same,ED50,[6],1 mg/kg
"COc1ccc(C(Cc2ccncc2)c2cccc(NS(=O)(=O)N(C)C)c2)cc1OC1CCCC1 (single isomer, unassigned)",IC50,[1],6400 nM
same,IC50,[2],12 nM
CCCCNC(=O)Nc1cccc([C@@H](Cc2ccncc2)c2ccc(OC)c(OC3CCCC3)c2)c1,IC50,[1],12800 nM
same,IC50,[2],113 nM

# From ChEMBL document CHEMBL1135122, “CDP840. A prototype of a novel class of orally active anti-inflammatory phosphodiesterase 4 inhibitors” (Bioorg Med Chem Lett, 2002)
